Source: patent publication US20260183242A1, “FORMULATIONS COMPRISING A COMBINATION OF ACID-NEUTRALIZING POLYMERIC AND NON-POLYMERIC SUBSTANCES FOR ORAL ADMINISTRATION OF ACTIVE AGENTS” (Entera Bio Ltd., priority 2023, published 2026)
Read-outs that look alike come from different tables or passages of the source.

Key:
[1] = cited from earlier work
[2] = pH upon addition of test substance to 0.1 M HCl solution (pH 1.2), pH meter; assay type: physicochemical
Experimental: The solution pH was determined using an MP-103 pH-meter (MRC, Israel) equipped with ELC-10-00 electrode (MRC, Israel) or with a thin electrode HI1083 (HANNA instruments Inc.), shortly after dissolution and up to 26 hours later in order to ensure that the pH remained stable. The highest pH value obtained during the experimental time period was recorded in order to compare the acid-neutralizing capacity of each substance.
SNAC and the basic polymers sodium alginate, sodium carboxymethylcellulose in non-crosslinked (Na-CMC) and crosslinked (croscarmellose sodium, CCS) forms, and sodium starch glycolate (SSG) were dissolved in various volumes of 0.1 M HCl solution (pH 1.2) at concentrations of 1, 2, 4, 10, 20, 50, 100 and 150 mg/ml, and the solution pH was determined using an MP-103 pH-meter (MRC, Israel) equipped with ELC-10-00 electrode (MRC, Israel), as described in the Materials and Methods section hereinabove.
In order to obtain a beneficial rise in pH with a reduced loss of the active form of the absorption enhancer, the effect of various concentrations of different polymers containing carboxylate groups (sodium alginate, sodium starch glycolate, sodium carboxymethylcellulose, and croscarmellose sodium) on pH upon addition to a 0.1 M HCl solution (pH 1.2) was also evaluated. FIG. 3A presents pH values determined using an MP-103 pH-meter (MRC, Israel) equipped with ELC-10-00 electrode (MRC, Israel) and FIG. 3B presents pH values determined using an MP-103 pH-meter (MRC, Israel) equipped with a thin electrode HI1083 (HANNA instruments Inc.).

pepsin = test: Proteolysis of hPTH (1-34) by pepsin at various pH values; assay type: in vitro ADME; details: 150 μg/ml pepsin, 37° C., 3 minutes; media pH 2-7
Experimental: The effect of pH on peptide proteolysis by pepsin was determined by incubating 13.5 μg/ml human parathyroid hormone (1-34) (hPTH (1-34)) with 150 μg/ml pepsin, at various pH values, and determining the percentage of hPTH (1-34) which remained. The amount of hPTH (1-34) remaining upon addition to 150 μg/ml pepsin at 37° C. was determined in media with different pH values, followed by immediate (10 second) vortex and centrifugation for 3 minutes at 4° C., 4000 RCF. The following media were used: simulated gastric fluid (pH 2), prepared from 0.01 M HCl and NaCl; phthalate buffer (pH 4 or 5); and phosphate buffer (pH 6 or 7).

[3] = In vivo pig model: absorption of active agent from SNAC/SSG tablets with or without small proton-accepting agent; parameters: species or system mini-pigs; details: both sexes, minipig; for Cmax: mini-pigs, preliminary data
Experimental: The effect of combination of SNAC, sodium starch glycolate (SSG) as an exemplary alkaline polymer and a small molecule proton-accepting agent (Sodium carbonate, arginine and/or Sodium Decanoate (C10)) on absorption of a therapeutically active agent was assessed in an in vivo pig model, which allows testing of orally administered unit dosage forms with conventional dimensions that are applicable also in humans. The following proteinaceous therapeutically active agents were tested: lixisenatide, octreotide, desmopressin, salmon calcitonin, PTH (1-34), leuprolide.
All formulation constituents were in a dry powder form and mixed geometrically using mortar and pestle. Thereafter, round flat tablets were prepared from the mixes using a punch and dye and dental manual press.
The obtained tablets were administered at monitored conditions with the aid of endoscope into the stomachs of 2 male and 2 female mini-pigs (about 45 kg) for each tested group on different visits. Pigs were deprived of food the night before the experiments and during the experiment and deprived of water an hour before the experiment and during the experiment.
Blood samples were taken from the jugular vein through an indwelling cannula at predetermined time points during the first hour post-dose (which reflects the absorption phase). Plasma was separated and the concentration of the tested model molecules in plasma was quantified using a suitable technique.
hPTH (1-34) was quantified using a commercially available Elisa kit for the determination of hPTH (1-34) in plasma or cell culture media (Quidel Corp. Athens, OH, USA; Cat #60-3900).
Octreotide was quantified using a commercially available Elisa kit for the determination of octreotide in plasma or cell culture media (BMA Biomedicals, Augst, Switzerland. Cat #S-1341).
Formulations containing the same therapeutically active agents were also formulated with 11% SSG and typically included about 0.3-0.5% by weight of the active agent, 85-90% by weight SNAC, and magnesium stearate as a lubricant (about 1% by weight), and the total weight of the tablet was 90-95 mg.

[4] = drug alone, without absorption enhancer; cited from earlier work

CCNC(=O)[C@@H]1CCCN1C(=O)[C@H](CCCNC(=N)N)NC(=O)[C@H](CC(C)C)NC(=O)[C@@H](CC(C)C)NC(=O)[C@H](Cc1ccc(O)cc1)NC(=O)[C@H](CO)NC(=O)[C@H](Cc1c[nH]c2ccccc12)NC(=O)[C@H](Cc1c[nH]cn1)NC(=O)[C@@H]1CCC(=O)N1 [Leuprolide, leuprolide]
T1/2 (IV half-life) ([1]; in vivo, iv): about 3 hours

O=C(O)CCCCCCCNC(=O)c1ccccc1O [SNAC, sodium 8-N-(2-hydroxybenzoyl)aminocaprylate]
pH 5 minutes after dissolution ([2]; 10 mg/ml SNAC added to HCl solution (pH 1.2)): about 1.5 | pH 5 minutes after dissolution ([2]; 20 mg/ml SNAC added to HCl solution (pH 1.2)): 6.5 | pH 5 minutes after dissolution ([2]; 100 mg/ml SNAC added to HCl solution (pH 1.2)): about 7.5

NC(=O)CC[C@@H]1NC(=O)[C@H](Cc2ccccc2)NC(=O)[C@H](Cc2ccc(O)cc2)NC(=O)CCSSC[C@@H](C(=O)N2CCC[C@H]2C(=O)N[C@H](CCCN=C(N)N)C(=O)NCC(N)=O)NC(=O)[C@H](CC(N)=O)NC1=O [desmopressin]
T1/2 (IV half-life) ([1]; in vivo, iv): 3 to 5 h

CC[C@H](C)[C@H](NC(=O)[C@H](CCC(=O)O)NC(=O)[C@H](CO)NC(=O)[C@@H](NC(=O)[C@@H](N)CO)C(C)C)C(=O)N[C@@H](CCC(N)=O)C(=O)N[C@@H](CC(C)C)C(=O)N[C@@H](CCSC)C(=O)N[C@@H](Cc1cnc[nH]1)C(=O)N[C@@H](CC(N)=O)C(=O)N[C@@H](CC(C)C)C(=O)NCC(=O)N[C@@H](CCCCN)C(=O)N[C@@H](Cc1cnc[nH]1)C(=O)N[C@@H](CC(C)C)C(=O)N[C@@H](CC(N)=O)C(=O)N[C@@H](CO)C(=O)N[C@@H](CCSC)C(=O)N[C@@H](CCC(=O)O)C(=O)N[C@@H](CCCN=C(N)N)C(=O)N[C@H](C(=O)N[C@@H](CCC(=O)O)C(=O)N[C@@H](Cc1c[nH]c2ccccc12)C(=O)N[C@@H](CC(C)C)C(=O)N[C@@H](CCCN=C(N)N)C(=O)N[C@@H](CCCCN)C(=O)N[C@@H](CCCCN)C(=O)N[C@@H](CC(C)C)C(=O)N[C@@H](CCC(N)=O)C(=O)N[C@@H](CC(=O)O)C(=O)N[C@H](C(=O)N[C@@H](Cc1cnc[nH]1)C(=O)N[C@@H](CC(N)=O)C(=O)N[C@@H](Cc1ccccc1)C(=O)O)C(C)C)C(C)C [hPTH (1-34), teriparatide]
pH at which proteolysis by pepsin was inhibited (pepsin): ≥ 6 | AUC(0-t) ([3]; AUClast): 0.164 ng·h/mL | AUC(0-t) ([3]; mean AUClast): 0.0978 ng·h/mL | T1/2 (IV half-life) ([1]; intravenous): about 5 minutes

C[C@@H](O)[C@@H]1NC(=O)[C@H](CCCCN)NC(=O)[C@@H](Cc2c[nH]c3ccccc23)NC(=O)[C@H](Cc2ccccc2)NC(=O)[C@@H](NC(=O)[C@H](N)Cc2ccccc2)CSSC[C@@H](C(=O)N[C@H](CO)[C@@H](C)O)NC1=O [octreotide]
Cmax ([3]; octreotide 0.3-0.5%, SNAC 85-90%, about 11% SSG, magnesium stearate, no PAA, read-out: mean Cmax): 2.09 ng/mL | Cmax ([3]; octreotide, SSG 11% by weight formulation further including sodium decanoate (C10), read-out: Cmax): 2.94 ng/mL | T1/2 (IV half-life) ([1]; intravenous): about 1.5 hours

CC[C@H](C)[C@H](NC(=O)[C@H](Cc1ccccc1)NC(=O)[C@H](CC(=O)O)NC(=O)[C@H](CCCNC(=N)N)NC(=O)[C@H](C)NC(=O)[C@H](C)NC(=O)[C@H](CC(C)C)NC(=O)[C@H](CC(N)=O)NC(=O)[C@H](CC(=O)O)NC(=O)[C@H](CC(C)C)NC(=O)[C@@H](NC(=O)[C@@H](NC(=O)[C@H](CC(N)=O)NC(=O)[C@H](CCSC)NC(=O)[C@H](CCC(=O)O)NC(=O)[C@H](CC(=O)O)NC(=O)[C@H](CO)NC(=O)[C@H](Cc1ccccc1)NC(=O)[C@H](CO)NC(=O)CNC(=O)[C@H](CC(=O)O)NC(=O)CNC(=O)[C@@H](N)Cc1c[nH]cn1)[C@@H](C)O)[C@@H](C)CC)C(=O)N[C@@H](CC(N)=O)C(=O)N[C@@H](Cc1c[nH]c2ccccc12)C(=O)N[C@@H](CC(C)C)C(=O)N[C@H](C(=O)N[C@@H](CCC(N)=O)C(=O)N[C@H](C(=O)N[C@@H](CCCCN)C(=O)N[C@H](C(=O)N[C@H](C(=O)N[C@@H](CC(=O)O)C(=O)O)[C@@H](C)O)[C@@H](C)CC)[C@@H](C)O)[C@@H](C)CC [teduglutide]
oral (PO) bioavailability [4]: negligible

lixisenatide
T1/2 (IV half-life) ([1]; in vivo, iv): about 3 hours

salmon calcitonin
T1/2 (IV half-life) ([1]; in vivo, iv): 1 to 1.5 h
